Results reported in patent US6656936B1, “Carnitine analogues as topical, microbicidal spermicides” (Virginia Tech Intellectual Properties, Inc., priority 1999, dated 2003).
Values after ≈ are worked out from the molar mass of the structure shown. Marks after values point to notes of the source that are not given here. Each block holds one compound with its values, some of them ahead of it.

Assays:
[1] = tested on: human sperm (semen samples); test: Spermicidal activity in the Sander-Cramer test; assay type: cell-based; conditions: for Highest Spermicidal Dilution (1/X) / MEC / MEC (Minimum Effective Concentration): n=10; for MEC (Minimum Effective Concentration per Sander-Cramer assay): Table 4, dH2O
Method: Semen samples were collected from healthy human volunteers: only specimens with >60×10^6 motile sperm/mL and >50% motility were used. Two-fold serial dilutions of the compounds were prepared in 0.9% saline and incubated with semen samples for 20 seconds. Sperm were assessed under the microscope and positive dilutions (i.e. all observed sperm were immotile) were further incubated at 37° C. for 1 hour with 2 vol. of buffer, and re-examined for sperm motility. If no motile sperm were seen, the positive score was maintained. The Minimum Effective Concentration (MEC) for the compound was calculated using the highest sperm immobilizing dilution and its initial concentration.

Candida albicans = test: Inhibition of growth of Candida albicans (MIC); assay type: cell-based; conditions: for MIC: C. albicans, 4 days at 28° C.
Method: The Minimum Inhibitory Concentrations (MICs) of Z-10-Z-15 were measured by determining the inhibition of growth of C. albicans in a solution of mineral salts plus yeast extract (See Standard Practice for Determining Resistance of Synthetic Polymeric Material to Fungi. American Society for Testing and Materials (ASTM) Standards on Materials and Environmental Microbiology, 1st Ed., 1987), and amended with glucose (10 g/L) and yeast extract (1 g/L). An aliquot (250 μl) of sterile medium was dispensed into each well of a 96-well microplate. Stock solutions were prepared by dissolving test compounds in 50% (v/v) aqueous dimethylsulfoxide (DMSO). Each well (plus controls) was then inoculated with 5 μl of a suspension of C. albicans. The suspension was then adjusted to provide OD686=0.28. This density contains ca. 2.5×10^7 colony forming units (CFU)^2/mL. The microplates were incubated in the dark for 4 days at 28° C.

HIV-1 (RF strain) = test: In vitro anti-HIV cell-free inactivation assay; assay type: cell-based; conditions: for reduction of infective viral titer: 2 minutes exposure
Method: The assay for in vitro anti-HIV activity followed the previously described procedure (Resnick et al., 1990). An infectious suspension of HIV-1 (RF strain, NIH 1983) was exposed to the compounds for 2 minutes. Immediately after, the mixture was 10-fold serially diluted with medium to terminate compound effect, and the dilutions were incubated with MT-2 target cells at 37° C. The cells were maintained in growth medium at 37° C. for 6 days. HIV-induced cytopathology (syncytium formation) was assessed on day 6 after infection, as was cell viability.

[2] = tested on: sperm penetration in bovine cervical mucus; test: Cervical mucus biodiffusion, Double-End test; conditions: testing concentration ten fold MEC; 60 minutes incubation; n=12
Method: The cervical mucus Biodiffusion properties of (R)Z-14 and (R)-Z-15 analogues were tested in comparison to that of N-9 using the Double-End test (Doncel. 1994). In this test, compound solutions (in 0.9% saline) were incubated for 60 minutes with a 7 cm capillary tube containing bovine cervical mucus (Penetrak®, Biochem Immuno System, Norwell, Mass.) opened at one end. After such incubation, the tubes' open end, which had been in contact with the compound, was sealed. Subsequently, the tubes were cut open at 20 mm from the initial opening, inverted, and immersed in semen so as to allow sperm penetration in an opposite direction to that of the compound diffusion. Sperm cease penetration when they encounter a bioactive concentration of the test compound. Thus, the lower the sperm penetration, the greater the compound's biodiffusion. In addition, the spermicidal activity of the analogues was tested again.

pH of sample = assay type: physicochemical
Description: The recent disclosure (Fassi, U.S. Pat. No. 5,952.379) of stable, non-hygroscopic salts of L-(-)[(R)-]acylcamitine and alkanoyl L-(-)-[(R)-]acylcarnitines with mucic acid (MA) (2:1) prompted the exploration of the effects of blending MA with Z-15. Blending reduced the pH of a sample of Z-15 from about 9-10 to about 3.5-3.8. The blends contained only 67% Z-15 as an active ingredient compared to pure Z-15 (100%).

[3] = Effect of time in CMC formulation on activity and chemical integrity; assay type: physicochemical
Method: Residual samples of (R)-Z-15 in the CMC formulation were analyzed with ^1H nuclear magnetic resonance (NMR) and Matrix Assisted Laser Desorption Ionization Time of Flight Mass Spectroscopy (MALDI-TOF). For the NMR analyses, samples of the hydrogel were dissolved in D2O. For the MALDI-TOF analysis a sample of the hydrogel was placed in the chamber and subjected to the laser. The MALDI-TOF results are depicted in FIG. 1.

spermatozoa = test: Sperm motility inhibition dose-response; assay type: cell-based; conditions: FIG. 2
Method: The ability of Z-15-mucic acid blends [(R)-Z-15-MA and rac-Z-15-MA] to inhibit sperm motility was tested in comparison to (R)-Z-15 alone or N-9. The results are depicted in FIG. 2.

[4] = Table 5, initial conc. 10 mg/ml in dH2O
[5] = Table 6, initial conc. 10 mg/mL in dH2O
[6] = Table 1, initial conc. 10 mg/ml in dH2O

MIC (Candida albicans): 80 to 100 µg/mL
Compound: CCCCCCCCCCCC[C@@]1(O)C[N+](C)(C)C[C@@H](CC(=O)[O-])O1 [Compound Z-12]
reduction of infective viral titer (HIV-1 (RF strain); 0.032 mg/mL): 0.0 log units
reduction of infective viral titer (HIV-1 (RF strain); 0.1 mg/mL): 0.3 log units
reduction of infective viral titer (HIV-1 (RF strain); 0.32 mg/mL): 2.0 log units
reduction of infective viral titer (HIV-1 (RF strain); 1 mg/mL): 2.8 log units
reduction of infective viral titer (HIV-1 (RF strain); 3.2 mg/mL): ≧3.5 log units
reduction of infective viral titer (HIV-1 (RF strain); 10 mg/mL): ≧4.0^ log units
Highest Spermicidal Dilution (1/X) [1, 6]: 27.2 ± 2.3 1/X
MEC (Minimum Effective Concentration) [1, 6]: 0.407 ± 0.7 mg/mL

MIC (Candida albicans): 40 µg/mL (≈ 108 µM)
Compound: CCCCCCCCCCCCC[C@@]1(O)C[N+](C)(C)C[C@@H](CC(=O)[O-])O1 [Compound Z-13]
reduction of infective viral titer (HIV-1 (RF strain); 0.032 mg/mL): 0.5 log units
reduction of infective viral titer (HIV-1 (RF strain); 0.1 mg/mL): 1.5 log units
reduction of infective viral titer (HIV-1 (RF strain); 0.32 mg/mL): 2.7 log units
reduction of infective viral titer (HIV-1 (RF strain); 1 mg/mL): 3.3 log units
reduction of infective viral titer (HIV-1 (RF strain); 3.2 mg/mL): 3.5 log units
reduction of infective viral titer (HIV-1 (RF strain); 10 mg/mL): 3.5 log units
Highest Spermicidal Dilution (1/X) [1, 6]: 48.0 ± 5.1 1/X
MEC (Minimum Effective Concentration) [1, 6]: 0.235 ± 0.025 mg/mL

MIC (Candida albicans): 10 µg/mL (≈ 25.9 µM)
Compound: CCCCCCCCCCCCCC[C@@]1(O)C[N+](C)(C)C[C@@H](CC(=O)[O-])O1 [Compound Z-14]
C. albicans growth inhibition, in words (Candida albicans): acceptable activity
DET % control (test sperm penetration compared to control) [2]: 18.0 ± 1.2 % control
reduction of infective viral titer (HIV-1 (RF strain); 0.032 mg/mL): 0.5 log units
reduction of infective viral titer (HIV-1 (RF strain); 0.1 mg/mL): 1.5 log units
reduction of infective viral titer (HIV-1 (RF strain); 0.32 mg/mL): 2.8 log units
reduction of infective viral titer (HIV-1 (RF strain); 1 mg/mL): 3.5 log units
reduction of infective viral titer (HIV-1 (RF strain); 3.2 mg/mL): ≧4.0 log units
reduction of infective viral titer (HIV-1 (RF strain); 10 mg/mL): ≧4.0^ log units
spermicidal activity (MEC), in words ([1]; Table 1): slightly lower than that of N-9
Highest Spermicidal Dilution (1/X) [1, 6]: 102.4 ± 18.5 1/X
MEC (Minimum Effective Concentration) [1, 6]: 0.121 ± 0.014 mg/mL
MEC (Minimum Effective Concentration per Sander-Cramer assay) [1]: 0.091 ± 0.008 mg/mL

MIC (Candida albicans): 2 µg/mL (≈ 5 µM)
pH of a sample (pH of sample): 9-10
chemical integrity in formulation (1H NMR, MALDI-TOF) ([3]; six months in the CMC formulation): remained unchanged chemically
Compound: CCCCCCCCCCCCCCC[C@@]1(O)C[N+](C)(C)C[C@@H](CC(=O)[O-])O1 [Compound Z-15]
C. albicans growth inhibition, in words (Candida albicans): highest activity
DET % control (test sperm penetration compared to control) [2]: 16.0 ± 0.0 % control
reduction of infective viral titer (HIV-1 (RF strain); 0.032 mg/mL): 0.3 log units
reduction of infective viral titer (HIV-1 (RF strain); 0.1 mg/mL): 1.5 log units
reduction of infective viral titer (HIV-1 (RF strain); 0.32 mg/mL): 2.7 log units
reduction of infective viral titer (HIV-1 (RF strain); 1 mg/mL): 3.2 log units
reduction of infective viral titer (HIV-1 (RF strain); 3.2 mg/mL): 3.8 log units
reduction of infective viral titer (HIV-1 (RF strain); 10 mg/mL): ≧4.0^ log units
spermicidal activity after time in formulation ([3]; three months in the CMC formulations): still active as a spermicide after three months
spermicidal activity (MEC), in words ([1]; Table 1): slightly lower than that of N-9
Highest Spermicidal Dilution (1/X) [1, 6]: 102.4 ± 9.9 1/X
MEC (Minimum Effective Concentration) [1, 6]: 0.109 ± 0.012 mg/mL
MEC (Minimum Effective Concentration per Sander-Cramer assay) [1]: 0.104 ± 0.011 mg/mL
Highest Spermicidal Dilution (1/X) [1, 4]: 73.6 ± 9.1 1/X
MEC [1, 4]: 0.156 ± 0.019 mg/mL
inhibition of sperm motility at concentrations below the MEC, in words (spermatozoa): superior ability of Z-15 over N-9

More lines, now with the values behind:

Compound: CCCCCCCCCCCCCCCC1(O)C[N+](C)(C)CC(CC(=O)[O-])O1 (racemic) [(rac)-Z-15]
spermicidal activity, in words ([1]; Table 5): slightly more active than the two enantiomers and significantly more active than N-9
Highest Spermicidal Dilution (1/X) [1, 4]: 115.2 ± 23.6 1/X
MEC [1, 4]: 0.117 ± 0.016 mg/mL
spermicidal activity, in words ([1]; Table 6): activity equal to that of the R and S enantiomers
Highest Spermicidal Dilution (1/X) [1, 5]: 108.80 ± 19.20 1/X
MEC [1, 5]: 0.113 mg/mL

Compound: CCCCCCCCCC[C@@]1(O)C[N+](C)(C)C[C@@H](CC(=O)[O-])O1 [Compound Z-10]
MIC (Candida albicans): >100 µg/mL
reduction of infective viral titer (HIV-1 (RF strain); 0.32 mg/mL): 0.8 log units
reduction of infective viral titer (HIV-1 (RF strain); 1 mg/mL): 1.0 log units
reduction of infective viral titer (HIV-1 (RF strain); 3.2 mg/mL): 2.8 log units
reduction of infective viral titer (HIV-1 (RF strain); 10 mg/mL): ≧4.0^a log units
Highest Spermicidal Dilution (1/X) [1, 6]: 4.8 ± 0.5 1/X
MEC (Minimum Effective Concentration) [1, 6]: 2.3 ± 0.2 mg/mL

Compound: CCCCCCCCCCC[C@@]1(O)C[N+](C)(C)C[C@@H](CC(=O)[O-])O1 [Compound Z-11]
MIC (Candida albicans): >100 µg/mL
reduction of infective viral titer (HIV-1 (RF strain); 0.32 mg/mL): 0.8 log units
reduction of infective viral titer (HIV-1 (RF strain); 1 mg/mL): 2.0 log units
reduction of infective viral titer (HIV-1 (RF strain); 3.2 mg/mL): 2.7 log units
reduction of infective viral titer (HIV-1 (RF strain); 10 mg/mL): 4.7 log units
Highest Spermicidal Dilution (1/X) [1, 6]: 7.6 ± 0.0 1/X
MEC (Minimum Effective Concentration) [1, 6]: 1.4 ± 0.1 mg/mL

Compound: Nonoxynol-9 [Compound N-9, reference compound]
DET % control (test sperm penetration compared to control) [2]: 17.5 ± 0.7 % control
reduction of infective viral titer (HIV-1 (RF strain); 0.032 mg/mL): 0.5 log units
reduction of infective viral titer (HIV-1 (RF strain); 0.1 mg/mL): 2.2 log units
reduction of infective viral titer (HIV-1 (RF strain); 0.32 mg/mL): 3.5 log units
reduction of infective viral titer (HIV-1 (RF strain); 1 mg/mL): ≧4.0^ log units
anti-HIV activity, in words (HIV-1 (RF strain); Table 2): slightly more active than these compounds
Highest Spermicidal Dilution (1/X) [1, 6]: 83.2 ± 18.2 1/X
MEC (Minimum Effective Concentration) [1, 6]: 0.144 ± 0.011 mg/mL
MEC (Minimum Effective Concentration per Sander-Cramer assay) [1]: 0.144 ± 0.011 mg/mL
Highest Spermicidal Dilution (1/X) [1, 4]: 33.6 ± 3.5 1/X
MEC [1, 4]: 0.329 ± 0.035 mg/mL
Highest Spermicidal Dilution (1/X) [1, 5]: 73.6 ± 8.4 1/X
MEC [1, 5]: 0.156 mg/mL
